Test results from ChEMBL document CHEMBL1136730, “Antiestrogens and selective estrogen receptor modulators as multifunctional medicines. 2. Clinical considerations and new agents” (J Med Chem, 2003).
pKi: −log10 of the molar value. Activity calls are given as the source filed them. The rule behind the calls is not given here.

Assays:
Estrogen receptor = target: T1, Estrogen receptor (Homo sapiens, UniProt P03372); experiment: Binding affinity for Estrogen receptor alpha
T1 sequence (P03372 whole entry): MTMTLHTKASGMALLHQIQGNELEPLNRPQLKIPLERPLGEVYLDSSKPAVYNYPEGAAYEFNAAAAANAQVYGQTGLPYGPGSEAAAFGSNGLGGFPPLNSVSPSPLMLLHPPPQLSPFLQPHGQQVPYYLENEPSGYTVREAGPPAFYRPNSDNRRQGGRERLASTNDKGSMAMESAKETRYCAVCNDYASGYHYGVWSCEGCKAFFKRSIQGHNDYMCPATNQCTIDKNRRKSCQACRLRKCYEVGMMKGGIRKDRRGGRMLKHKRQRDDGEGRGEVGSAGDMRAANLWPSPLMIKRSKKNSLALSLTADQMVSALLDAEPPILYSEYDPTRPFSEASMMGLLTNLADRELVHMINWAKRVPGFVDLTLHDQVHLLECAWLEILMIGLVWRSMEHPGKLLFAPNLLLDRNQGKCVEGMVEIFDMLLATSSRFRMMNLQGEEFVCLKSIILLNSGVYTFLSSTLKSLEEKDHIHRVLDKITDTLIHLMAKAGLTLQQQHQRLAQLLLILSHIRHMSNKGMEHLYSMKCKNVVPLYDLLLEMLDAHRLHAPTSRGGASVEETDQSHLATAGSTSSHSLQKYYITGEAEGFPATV

Rattus norvegicus = experiment: Effect on stimulation of immature rat uterus in dose limit of 0.1 and 10 mg/kg; No effect but lowers circulating cholesterol; format: functional, organism-based; design: dose 10 mg/kg
Homo sapiens [1] = species on record: Homo sapiens; experiment: Effect on bone density in the lumber spine was determined in postmenopausal women; format: functional
[2] = Effect on bone density of totalhip was determined in postmenopausal women; format: functional, Homo sapiens, Bone element
Homo sapiens [3] = species on record: Homo sapiens; experiment: Effect on spine fractures in postmenopausal women with osteoporosis; format: functional

Q: What does the source list for Oc1ccc2c(c1)CN(c1ccc(OCCN3CCCCC3)cc1)c1c-2ccc2cc(O)ccc12?
A: pKi (Estrogen receptor): 9.55; Effect (Rattus norvegicus): inactive

Q: Which Increase (Homo sapiens [1]) does the source give for O=C(c1ccc(OCCN2CCCCC2)cc1)c1c(-c2ccc(O)cc2)sc2cc(O)ccc12 [RALOXIFENE] here?
A: Its Increase is 2.4%.

Q: And the Increase [2]?
A: The Increase was 2.4%.

Q: What about the Decrease (Homo sapiens [3]) of the same compound?
A: Its Decrease is 40%.

Q: And the bioavailability (in vivo)?
A: Its bioavailability is 2%.
